Data from PubChem BioAssay (NCI).
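Results reflect a 48-hour exposure of cells in 96-well plates to compound at five concentrations. GI50 = concentration required for 50% inhibition of growth. The concentration for full growth arrest is given as TGI.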

Assays:
Assay in all cases: NCI anticancer screen, dose series, 48 h
MDA-MB-468 breast = system: MDA-MB-468 breast
OVCAR-8 ovarian = system: OVCAR-8 ovarian
MCF7 breast = system: MCF7 breast
MDA-MB-231 breast = system: MDA-MB-231 breast
OVCAR-5 ovarian = system: OVCAR-5 ovarian
UACC-257 melanoma = system: UACC-257 melanoma
MALME-3M melanoma = system: MALME-3M melanoma
UO-31 renal = system: UO-31 renal
SN12C renal = system: SN12C renal
SNB-19 CNS = system: SNB-19 CNS
ACHN renal = system: ACHN renal
M14 melanoma = system: M14 melanoma
A549 NSCLC = system: A549 NSCLC
HCT-116 colon = system: HCT-116 colon
SF-539 CNS = system: SF-539 CNS
OVCAR-4 ovarian = system: OVCAR-4 ovarian
BT-549 breast = system: BT-549 breast
NCI-H226 lung = system: NCI-H226 lung
COLO 205 colon = system: COLO 205 colon
SK-MEL-5 melanoma = system: SK-MEL-5 melanoma
HL-60(TB) leukemia = system: HL-60(TB) leukemia
OVCAR-3 ovarian = system: OVCAR-3 ovarian
UACC-62 melanoma = system: UACC-62 melanoma
EKVX NSCLC = system: EKVX NSCLC
KM12 colon = system: KM12 colon
SK-MEL-2 melanoma = system: SK-MEL-2 melanoma
HOP-92 NSCLC = system: HOP-92 NSCLC
786-0 renal = system: 786-0 renal
SK-MEL-28 melanoma = system: SK-MEL-28 melanoma
HS 578T breast = system: HS 578T breast
SF-295 CNS = system: SF-295 CNS
T-47D breast = system: T-47D breast
NCI-H522 lung = system: NCI-H522 lung
PC-3 prostate = system: PC-3 prostate
RPMI-8226 leukemia = system: RPMI-8226 leukemia
CCRF-CEM leukemia = system: CCRF-CEM leukemia
HCT-15 colon = system: HCT-15 colon
IGROV1 ovarian = system: IGROV1 ovarian
RXF 393 renal = system: RXF 393 renal
DU-145 prostate = system: DU-145 prostate
MOLT-4 leukemia = system: MOLT-4 leukemia
SK-OV-3 ovarian = system: SK-OV-3 ovarian
CAKI-1 renal = system: CAKI-1 renal
TK-10 renal = system: TK-10 renal
HOP-62 NSCLC = system: HOP-62 NSCLC
SR leukemia = system: SR leukemia
NCI-H23 lung = system: NCI-H23 lung
SF-268 CNS = system: SF-268 CNS
MDA-MB-435 = system: MDA-MB-435
A498 renal = system: A498 renal
LOX IMVI melanoma = system: LOX IMVI melanoma

## COc1nc(=O)n(C2C=CC(=O)O2)cc1F (centres undefined)
MDA-MB-468 breast
  GI50: 1.93 µM
  TGI: 9.1 µM

## C[C@H](CCOc1cccc(CC(=O)O)c1)N(Cc1cccc(C(F)(F)F)c1Cl)CC(c1ccccc1)c1ccccc1
MDA-MB-468 breast
  GI50: 6.73 µM
  TGI: 24 µM

## Nc1c(C(=O)Nc2ccccn2)sc2nc3c(cc12)C(=O)CCC3
MDA-MB-468 breast
  GI50: 0.269 µM
  TGI: 67.3 µM

## O=C(Nc1ncc(Cc2cccc(C(F)(F)F)c2)s1)c1ccc2c(c1)OCCO2
MDA-MB-468 breast
  GI50: 0.251 µM

## CC[C@]1(O)C[C@H]2CN(CCc3c([nH]c4ccccc34)C(C(=O)OC)(c3cc4c(cc3OC)N(C)[C@H]3[C@@](O)(C(=O)OC)[C@H](OC(C)=O)[C@]5(CC)[C@@H]6C[C@@H]6CN6CC[C@]43[C@@H]65)C2)C1 (some centres undefined)
MDA-MB-468 breast
  GI50: 0.00285 µM
  TGI: 0.00917 µM

## O=c1[nH]c(-c2cccc(F)c2)cc2cc(F)ccc12
MDA-MB-468 breast
  GI50: 1.89 µM
  TGI: > 100 µM

## CCCCCCn1c(-c2ccc(C(=O)O/N=C(\N)c3ccc4c(c3)OCO4)cc2)nc(-c2ccccc2)c1-c1ccccc1
MDA-MB-468 breast
  GI50: 2.11 µM
  TGI: 5.62 µM

## COC(=O)/C=C/c1cc(OC(C)=O)c2c(c1)C(C(=O)OC)C(c1ccc(OC(C)=O)c(OC(C)=O)c1)O2 (centres undefined)
MDA-MB-468 breast
  GI50: 1.2 µM
  TGI: 17.8 µM

## COc1ccc(CNc2c3ccccc3nc3ccccc23)cc1F
MDA-MB-468 breast
  GI50: 1.86 µM
  TGI: 4.81 µM

## CCOC(=O)c1c(C)c2c(n1Cc1ccccc1)CSCC2=O
MDA-MB-468 breast
  GI50: 23.3 µM
  TGI: > 100 µM

## N#CC(I)CS(=O)(=O)c1ccccc1 (centres undefined)
MDA-MB-468 breast
  GI50: 3.55 µM
  TGI: 14.1 µM

## COc1ccc(/C=C\c2cc(OC)c(OC)c(OC)c2)cc1OCC(=O)O
MDA-MB-468 breast
  GI50: 49.3 µM
  TGI: > 100 µM

## NC(N)=Nc1nc2ccccc2o1
MDA-MB-468 breast
  GI50: > 100 µM
  TGI: > 100 µM

## NC(=O)c1cc(I)ccc1NC(=O)/C=C/c1ccccc1
MDA-MB-468 breast
  GI50: 0.732 µM
  TGI: 47.1 µM

## COc1ccc(-c2cc(=O)oc3c4c(ccc23)OCN(Cc2ccc(F)cc2)C4)cc1
MDA-MB-468 breast
  GI50: 15.7 µM
  TGI: 36.3 µM

## COc1cc(/C=C2\CCCCC3=C2N=C2SC(C)=CN2C3c2cc(OC)c(OC)c(OC)c2)cc(OC)c1OC (centres undefined)
MDA-MB-468 breast
  GI50: 0.185 µM
  TGI: > 100 µM

## CCN(CCNS(C)(=O)=O)c1ccc(N)c(C)c1
MDA-MB-468 breast
  GI50: 2.11 µM
  TGI: 5.64 µM

## Nc1nc(Cl)nc2c1ncn2C1CC(O)C(CO)O1 (centres undefined)
MDA-MB-468 breast
  GI50: 56.6 µM
  TGI: > 100 µM

## OC(c1cc2cc(Cl)ccc2c2cc(C(F)(F)F)ccc12)C1CCCCN1 (centres undefined)
MDA-MB-468 breast
  GI50: 1.66 µM
  TGI: 3.2 µM

## COc1ccc2[nH]cc(-c3cc4nc(-c5cn(C)c6ncccc56)cc(N)n4n3)c2c1
OVCAR-8 ovarian
  GI50: 4.93 µM
  TGI: > 100 µM
MCF7 breast
  GI50: 2.01 µM
  TGI: 4.94 µM
MDA-MB-468 breast
  GI50: 1.53 µM
  TGI: 3.12 µM
MDA-MB-231 breast
  GI50: 2.33 µM
  TGI: 5.2 µM
OVCAR-5 ovarian
  GI50: 4.66 µM
  TGI: 19.2 µM
UACC-257 melanoma
  GI50: 21.5 µM
  TGI: 55.4 µM
MALME-3M melanoma
  GI50: 5.02 µM
  TGI: 18.3 µM
UO-31 renal
  GI50: 3.59 µM
  TGI: 17.5 µM
SN12C renal
  GI50: 6.93 µM
  TGI: 23.8 µM
SNB-19 CNS
  GI50: 8.67 µM
  TGI: 32.2 µM
ACHN renal
  GI50: 3.48 µM
  TGI: 12.5 µM
M14 melanoma
  GI50: 4.56 µM
  TGI: 32.3 µM
A549 NSCLC
  GI50: 2.75 µM
  TGI: > 100 µM
HCT-116 colon
  GI50: 3.6 µM
  TGI: 33.5 µM
SF-539 CNS
  GI50: 1.63 µM
  TGI: 3.05 µM
OVCAR-4 ovarian
  GI50: 2.06 µM
  TGI: 5.15 µM
BT-549 breast
  GI50: 7.03 µM
  TGI: 38.3 µM
NCI-H226 lung
  GI50: 20.4 µM
  TGI: 57.2 µM
COLO 205 colon
  GI50: 4.71 µM
  TGI: > 100 µM
SK-MEL-5 melanoma
  GI50: 6.18 µM
  TGI: 19.3 µM
HL-60(TB) leukemia
  GI50: 1.48 µM
  TGI: 4.78 µM
OVCAR-3 ovarian
  GI50: 12.5 µM
  TGI: > 100 µM
UACC-62 melanoma
  GI50: 14.2 µM
  TGI: 27.8 µM
EKVX NSCLC
  GI50: 8.55 µM
  TGI: 62.3 µM
KM12 colon
  GI50: 3.41 µM
  TGI: > 100 µM
SK-MEL-2 melanoma
  GI50: 19.3 µM
  TGI: 53.2 µM
HOP-92 NSCLC
  GI50: 4.84 µM
  TGI: 51.7 µM
786-0 renal
  GI50: 1.54 µM
  TGI: 2.92 µM
SK-MEL-28 melanoma
  GI50: 10.8 µM
  TGI: 23.4 µM
HS 578T breast
  GI50: 20.3 µM
  TGI: 64.6 µM
SF-295 CNS
  GI50: 1.68 µM
  TGI: 3.26 µM
T-47D breast
  GI50: 5.77 µM
  TGI: 90.1 µM
NCI-H522 lung
  GI50: 4.48 µM
  TGI: > 100 µM
PC-3 prostate
  GI50: 6.67 µM
  TGI: > 100 µM
RPMI-8226 leukemia
  GI50: 3.05 µM
  TGI: > 100 µM
CCRF-CEM leukemia
  GI50: 2.56 µM
  TGI: > 100 µM
HCT-15 colon
  GI50: 1.91 µM
  TGI: 4.53 µM
IGROV1 ovarian
  GI50: 2.12 µM
  TGI: 4.93 µM
RXF 393 renal
  GI50: 1.67 µM
  TGI: 3.27 µM
DU-145 prostate
  GI50: 6.36 µM
  TGI: > 100 µM
MOLT-4 leukemia
  GI50: 1.79 µM
  TGI: > 100 µM
SK-OV-3 ovarian
  GI50: 52.8 µM
  TGI: > 100 µM
CAKI-1 renal
  GI50: 4.03 µM
  TGI: 23.5 µM
TK-10 renal
  GI50: 19.1 µM
  TGI: > 100 µM
HOP-62 NSCLC
  GI50: 10.2 µM
  TGI: > 100 µM
SR leukemia
  GI50: 2.55 µM
  TGI: > 100 µM
NCI-H23 lung
  GI50: 6.29 µM
  TGI: 24.7 µM
SF-268 CNS
  GI50: 13.5 µM
  TGI: > 100 µM
MDA-MB-435
  GI50: 10.8 µM
  TGI: 27.8 µM
A498 renal
  GI50: 25.3 µM
  TGI: 49.4 µM
LOX IMVI melanoma
  GI50: 2.02 µM
  TGI: 3.6 µM
